Test results taken from patent US6984642B1, “Substituted phenylcyclohexane carboxylic acid amides and their use as adenosine uptake inhibitors” (Bayer Aktiengesellschaft, priority 1999, dated 2006).

System: adenosine-uptake system
Experiment: Inhibition of adenosine uptake in rabbit erythrocytes
Format: cell-based
Conditions: Oryctolagus cuniculus, 0.25 h; rabbit erythrocyte preparation; concentration at which 50% of the adenosine originally employed is still present 15 min after addition; 30° C.
Protocol: 2. Inhibition of Adenosine Uptake in Rabbit Erythrocytes by the Compounds According to the Invention.
The capability of substances to influence the adenosine-uptake system is investigated by determining the inhibitory effect of the substances on functional adenosine uptake. For the functional adenosine-uptake test, an erythrocyte preparation from rabbit blood is used. The blood is drawn intravenously using citrate (3 ml Monovette 9NC from Sarstedt) as anticoagulant. The blood is centrifuged at 3000 g for 5 min and the erythrocytes are suspended in 10 mM MOPS/0.9% NaCl solution pH 7.4. The suspension is diluted to one hundredth of the original blood volume. In each case 990 μl of the suspension are admixed with 10 μl of a suitable concentration of the substance to be investigated, and the mixture is incubated at 30° C. for 5 min. 5 μl of a 4 mM adenosine solution are then added, and the mixture is incubated at 30° C. for another 15 min. The samples are then centrifuged at 3000 g for 5 min and in each case […] of the supernatant are admixed with 28 μl of 70% strength HClO4, allowed to stand in an ice bath for 30 min and centrifuged at 16,000 g for 3 min, and 350 μl of the sample are neutralized using 30 μl of 5N NaOH. 50 μl of the sample are applied to a column (Waters Symmetry C18 […] 3.9×150 mm). A Spherisorb ODS II 5 μm 4.6×10 mm column is used as precolumn. The mobile phase used is a gradient of 50 mM KH2PO^4/5 mM tributylamine pH 7 (mobile phase A) and a mixture of mobile phase A/methanol 1/1 (mobile phase B). The gradient is from 10-40% B, at a flow rate of 0.5 ml/min. The adenosine which is present is quantified by its absorption at 260 nm, as are the hyoxanthine and inosine formed.

IC50 [nM] | Compound
15 | NC(=O)[C@@H](NC(=O)[C@@H]1CCCC[C@H]1c1ccc(Cn2c(CN3CCOCC3)nc3cccnc32)cc1)c1ccccc1 [Example 3, (S)-N-{{(1R, 2R)-{4-{2-[2-(Morpholin-4-yl-methyl)-1H-pyrido[2,3-d]-imidazol-1-yl]methyl}-phenyl}-cyclohex-1-yl}carbonyl}-phenylglycinamide]
20 | CC(C)N1CCN(c2nc3ccccc3n2Cc2ccc([C@@H]3CCCC[C@H]3C(=O)N[C@H](C(N)=O)c3ccccc3)cc2)CC1 [Example 8]
25 | NC(=O)[C@@H](NC(=O)[C@@H]1CCCC[C@H]1c1ccc(Cn2c(N3CCNCC3)nc3ccccc32)cc1)c1ccccc1 [Example 10]
10 | NC(=O)[C@@H](NC(=O)[C@@H]1CCCC[C@H]1c1ccc(Cn2c(COCCO)nc3cccnc32)cc1)c1ccccc1 [Example 16]
